Earlier results, collected in US12358215B2, “Binders and methods of binder jetting including branched polymer binders and articles made therefrom” (VIRGINIA TECH INTELLECTUAL PROPERTIES, INC., priority 2019, dated 2025).

CC(=O)Nc1ccc(O)cc1 [Acetaminophen, acetaminophen]
solubility in cold water: only slightly soluble
